Laboratory results: ChEMBL document CHEMBL1201862, “PubChem BioAssay data set” (2004)
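All cell lines were grown in 96-well plates and treated with compound for 48 hours. At the GI50, growth is halved.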 The source made the active and inactive calls. Cut-off read from the data, not from the text of the source: active = GI50 up to about 1.1 µM and inactive = higher.

How the values were obtained:
Assay in all cases: NCI tumour cell line growth inhibition, 48 h
UACC-257 = test system: UACC-257
SK-MEL-5 = test system: SK-MEL-5
SF-295 = test system: SF-295
HT-29 = test system: HT-29
DU-145 = test system: DU-145
HCC 2998 = test system: HCC 2998
SW-620 = test system: SW-620
HCT-116 = test system: HCT-116
MDA-MB-231 = test system: MDA-MB-231
SF-268 = test system: SF-268
T47D = test system: T47D
SK-MEL-2 = test system: SK-MEL-2
COLO 205 = test system: COLO 205
K562 = test system: K562
OVCAR-8 = test system: OVCAR-8
RXF 393 = test system: RXF 393
LOX IMVI = test system: LOX IMVI
SK-MEL-28 = test system: SK-MEL-28
MDA-MB-435 = test system: MDA-MB-435
SN12C = test system: SN12C
HOP-92 = test system: HOP-92
OVCAR-4 = test system: OVCAR-4
A549 = test system: A549
NCI-H460 = test system: NCI-H460
Hs-578T = test system: Hs-578T
SNB-75 = test system: SNB-75
RPMI-8226 = test system: RPMI-8226
NCI/ADR-RES = test system: NCI/ADR-RES
KM12 = test system: KM12
OVCAR-3 = test system: OVCAR-3
SF-539 = test system: SF-539
UO-31 = test system: UO-31
NCI-H23 = test system: NCI-H23
SNB-19 = test system: SNB-19
M14 = test system: M14
NCI-H522 = test system: NCI-H522
IGROV-1 = test system: IGROV-1
UACC-62 = test system: UACC-62
EKVX = test system: EKVX
U-251 = test system: U-251
MDA-N = test system: MDA-N
MOLT-4 = test system: MOLT-4
OVCAR-5 = test system: OVCAR-5
SR = test system: SR
BT-549 = test system: BT-549
CAKI-1 = test system: CAKI-1
HCT-15 = test system: HCT-15
MCF7 = test system: MCF7
SK-OV-3 = test system: SK-OV-3
PC-3 = test system: PC-3
TK-10 = test system: TK-10
HL-60 = test system: HL-60
ACHN = test system: ACHN
Malme-3M = test system: Malme-3M
A498 = test system: A498
HOP-62 = test system: HOP-62
786-0 = test system: 786-0
CCRF-CEM = test system: CCRF-CEM
NCI-H226 = test system: NCI-H226

Measured: GI50

CCOC(=O)C(NC(=O)CC)(Nc1ccccc1F)C(F)(F)F (stereo not given)
> 100 µM: HCT-15
inactive: UACC-257 > 100 µM | SK-MEL-5 68.2 µM | SF-295 > 100 µM | HT-29 > 100 µM | DU-145 > 100 µM | HCC 2998 > 100 µM | SW-620 > 100 µM | HCT-116 > 100 µM | MDA-MB-231 > 100 µM | SF-268 > 100 µM | T47D 38.4 µM | SK-MEL-2 > 100 µM | COLO 205 > 100 µM | K562 86.9 µM | OVCAR-8 > 100 µM | RXF 393 > 100 µM | LOX IMVI > 100 µM | SK-MEL-28 > 100 µM | MDA-MB-435 > 100 µM | SN12C > 100 µM | HOP-92 > 100 µM | OVCAR-4 > 100 µM | A549 > 100 µM | NCI-H460 > 100 µM | Hs-578T > 100 µM | SNB-75 > 100 µM | RPMI-8226 > 100 µM | NCI/ADR-RES 99.3 µM | KM12 > 100 µM | OVCAR-3 > 100 µM | SF-539 > 100 µM | UO-31 > 100 µM | NCI-H23 > 100 µM | SNB-19 > 100 µM | M14 > 100 µM | NCI-H522 > 100 µM | IGROV-1 > 100 µM | UACC-62 42.2 µM | EKVX > 100 µM | U-251 > 100 µM | MDA-N > 100 µM | MOLT-4 > 100 µM | OVCAR-5 58.1 µM | SR > 100 µM | BT-549 > 100 µM | CAKI-1 > 100 µM | MCF7 > 100 µM | SK-OV-3 > 100 µM | PC-3 > 100 µM | TK-10 > 100 µM | HL-60 > 100 µM | ACHN 48.9 µM

C[N+]1(CC[N+]2(C)CCCC2c2cccnc2)CCCC1c1cccnc1 (stereo not given)
inactive: UACC-257 76.2 µM | SK-MEL-5 > 100 µM | SF-295 > 100 µM | HT-29 50.6 µM | DU-145 > 100 µM | HCC 2998 > 100 µM | SW-620 > 100 µM | HCT-116 96.6 µM | MDA-MB-231 > 100 µM | SF-268 > 100 µM | T47D 42.4 µM | SK-MEL-2 > 100 µM | COLO 205 86.1 µM | K562 96.4 µM | OVCAR-8 > 100 µM | RXF 393 > 100 µM | LOX IMVI > 100 µM | Malme-3M 59.3 µM | SK-MEL-28 61.8 µM | MDA-MB-435 33.2 µM | A498 > 100 µM | SN12C > 100 µM | HOP-92 > 100 µM | OVCAR-4 > 100 µM | A549 > 100 µM | NCI-H460 > 100 µM | Hs-578T > 100 µM | SNB-75 > 100 µM | RPMI-8226 97.7 µM | NCI/ADR-RES > 100 µM | KM12 > 100 µM | OVCAR-3 > 100 µM | SF-539 > 100 µM | UO-31 > 100 µM | HOP-62 > 100 µM | NCI-H23 > 100 µM | SNB-19 > 100 µM | M14 > 100 µM | NCI-H522 > 100 µM | IGROV-1 > 100 µM | UACC-62 > 100 µM | EKVX 18.7 µM | U-251 60 µM | MDA-N 32.5 µM | MOLT-4 2.75 µM | OVCAR-5 > 100 µM | SR > 100 µM | BT-549 > 100 µM | CAKI-1 > 100 µM | MCF7 > 100 µM | 786-0 30.4 µM | SK-OV-3 > 100 µM | PC-3 > 100 µM | TK-10 > 100 µM | ACHN > 100 µM
> 100 µM: HCT-15

O=C1N(Cc2ccccc2)C2CSCC2N1Cc1ccccc1 (stereo not given)
inactive: CCRF-CEM 51.2 µM | UACC-257 24.8 µM | SK-MEL-5 15.4 µM | SF-295 37.3 µM | HT-29 16.7 µM | DU-145 50.9 µM | HCC 2998 26.5 µM | SW-620 36.2 µM | HCT-116 36.4 µM | MDA-MB-231 12.1 µM | SF-268 31.1 µM | T47D 27.2 µM | SK-MEL-2 16.7 µM | COLO 205 16.8 µM | K562 55.5 µM | OVCAR-8 33.3 µM | RXF 393 20.6 µM | LOX IMVI 30.2 µM | Malme-3M 13.5 µM | SK-MEL-28 37.7 µM | NCI-H226 24.1 µM | MDA-MB-435 20.2 µM | SN12C 33.7 µM | HOP-92 23 µM | OVCAR-4 69.2 µM | A549 40 µM | NCI-H460 18.3 µM | Hs-578T 18.6 µM | SNB-75 41.9 µM | RPMI-8226 23.5 µM | NCI/ADR-RES 24.5 µM | KM12 23.8 µM | OVCAR-3 10.4 µM | SF-539 24.5 µM | UO-31 24 µM | HOP-62 1.85 µM | NCI-H23 27.8 µM | SNB-19 63.2 µM | M14 10.5 µM | NCI-H522 3.94 µM | IGROV-1 24.8 µM | UACC-62 27.4 µM | EKVX 21.1 µM | U-251 35.3 µM | MDA-N 30.2 µM | MOLT-4 37.5 µM | OVCAR-5 15.9 µM | SR 37.2 µM | BT-549 17.1 µM | CAKI-1 30.8 µM | MCF7 31.4 µM | SK-OV-3 27.4 µM | PC-3 29.6 µM | TK-10 29.6 µM | ACHN 49.2 µM

CCN(CC)C(=S)SC(C(=O)Nc1nnc(-c2ccccc2)o1)c1ccccc1 (stereo not given)
inactive: UACC-257 22.9 µM | SK-MEL-5 14.6 µM | SF-295 15.6 µM | HT-29 17.9 µM | DU-145 17.9 µM | SW-620 28.7 µM | HCT-116 16 µM | MDA-MB-231 34.1 µM | T47D 23.7 µM | SK-MEL-2 18.1 µM | COLO 205 30.3 µM | K562 15.7 µM | OVCAR-8 28.8 µM | RXF 393 16.2 µM | LOX IMVI 4.23 µM | Malme-3M 20.4 µM | SK-MEL-28 17.9 µM | NCI-H226 24.7 µM | MDA-MB-435 17.1 µM | A498 18.2 µM | SN12C 10.3 µM | OVCAR-4 25.9 µM | A549 15.3 µM | NCI-H460 9.1 µM | Hs-578T 40.3 µM | SNB-75 31.9 µM | RPMI-8226 24.4 µM | NCI/ADR-RES 4.24 µM | KM12 20.2 µM | OVCAR-3 15.2 µM | SF-539 25.8 µM | UO-31 10.1 µM | HOP-62 20.9 µM | NCI-H23 15.4 µM | SNB-19 29.8 µM | M14 16.1 µM | NCI-H522 17.8 µM | IGROV-1 15.3 µM | EKVX 18.4 µM | U-251 16.1 µM | MDA-N 16.6 µM | MOLT-4 2.88 µM | OVCAR-5 23.1 µM | SR 5.52 µM | BT-549 13.1 µM | CAKI-1 19.4 µM | MCF7 18.5 µM | 786-0 15.8 µM | SK-OV-3 32.4 µM | PC-3 19.3 µM | TK-10 44.5 µM | ACHN 17.4 µM
5.24 µM: HCT-15

COc1ccc2cc(/C=N\NC(=O)Nc3ccc([N+](=O)[O-])cc3)ccc2c1
inactive: CCRF-CEM > 10 µM | UACC-257 14.6 µM | SK-MEL-5 11.7 µM | SF-295 13.8 µM | HT-29 11.5 µM | DU-145 7.41 µM | HCC 2998 14.2 µM | SW-620 17.5 µM | HCT-116 11.6 µM | MDA-MB-231 13.9 µM | SF-268 12.8 µM | T47D 14.2 µM | SK-MEL-2 13.3 µM | COLO 205 13.1 µM | K562 14.8 µM | OVCAR-8 11.7 µM | RXF 393 11.2 µM | LOX IMVI 12 µM | Malme-3M 12.3 µM | SK-MEL-28 14.6 µM | NCI-H226 > 10 µM | MDA-MB-435 14.1 µM | SN12C 12.4 µM | HOP-92 16 µM | OVCAR-4 5.04 µM | A549 11.2 µM | NCI-H460 12.4 µM | Hs-578T 17.5 µM | SNB-75 13.2 µM | RPMI-8226 13.8 µM | NCI/ADR-RES 13.6 µM | KM12 11.3 µM | OVCAR-3 18.4 µM | SF-539 8.24 µM | UO-31 13.6 µM | HOP-62 14.8 µM | NCI-H23 11.4 µM | SNB-19 13.2 µM | M14 22.6 µM | NCI-H522 13.5 µM | IGROV-1 13.8 µM | UACC-62 13.8 µM | EKVX 14 µM | U-251 13.6 µM | MDA-N 13 µM | MOLT-4 16.5 µM | OVCAR-5 18.5 µM | SR > 10 µM | BT-549 12.7 µM | CAKI-1 13.5 µM | MCF7 14.4 µM | 786-0 8.59 µM | SK-OV-3 11.9 µM | PC-3 11.8 µM | TK-10 7.96 µM | HL-60 11 µM | ACHN 13.9 µM
15.1 µM: HCT-15
